Entries after “also recorded” stand apart in the source; their conditions may differ.
Experiments:
Panc-1 tumor = assay: Xenotransplanted Panc-1 pancreatic tumor growth in SCID mice; type: in vivo, SCID mice (BALB/C)
Description: 4-6 week-old male SCID mice (BALB/C) were purchased from Charles River laboratories (Wilmington, Mass., USA). Pane-1 cells at about 80% confluence were trypsinized with 0.25% trypsin and 0.02% EDTA. The cell suspension was centrifuged after addition of 10% FBS. 10^6 cells were resuspended in 100 μl PBS buffer containing 10% Matrigel, and injected with a 1-cc syringe with a 27-30 sized needle into the right flank of nude mice under anesthesia. After tumor formation (mean volume 50-60 mm^3) the mice were randomly divided into four groups (6 mice per group): control group, rapamycin treatment group, Y29794 treatment group, and Y29794 plus rapamycin treatment group. Rapamycin and Y29794 were dissolved in Cremophor formulation (20% Cremophor EL, 30% propylene glycol, 50% ethanol). Rapamycin (2 mg/kg body weight) was given by intraperitoneal injection one dose per week. Y29794 (20 mg/kg body weight) was administered by gavage five doses a week. Weekly measurements of tumor size (length, width and depth) and calculation of the tumor volume (½ larger diameter×(smaller diameter)) were carried until the control tumors reached 1000 mm^3.

Panc-1 = assay: MTT cell viability assay; type: cell-based
Description: 1.1. ZPP and Y29794 induces cytotoxicity to cancer cells by MTT analysis of cell viability. Cells were placed in 96-well plates (3×10^3 cells/well) in octuplicate. The cells were then treated with vehicle or different doses of ZPP for 4 days. Cells were then loaded with 1.2 mM MTT (4,5-Dimethylthiazol-2-vn-2,5-diphenvltetrazolium bromide, a yellow tetrazole) in phenol red-free medium for 4 hours. The cells were then lysed in 10% SDS/0.01M HCL. MTT absorbance (570 nm spectrum) was measured by a microplate reader. The relative absorbance is normalized to the control (vehicle-treated) to indicate relative cell viability. ZPP was purchased from Biomol (Plymouth Meeting, Pa., USA). MTT was purchased from Sigma-Aldrich. Panc-1 and Capan-1 pancreatic cancer cell line, MCF7 and T47D breast cancer cell lines, A549 and HI 703 lung cancer Cell lines were purchased from American Type Culture Collection (ATCC, USA) preparation of pancreatic cancer cell line PK-9 have been disclosed, e.g., Kobari M et al, (1986) Tohoku J Exp Med. 150: 231-248; Etoh T et al, (2003) Clin Cancer Res 9; 1218; Arafat H. et al, (2011) Surgery 150 (2): 306-315. Cells were grown in Dulbecco's Modified. Eagle's (DMEM) medium (Invitrogen, Carlsbad, Calif.) containing 10% fetal bovine serum (FBS) (Hyclone, purchased from Thermo Fisher Scientific, Inc). […] […] Y29794 oxalate was purchased from Tocris Biosciences (Bristol, UK).

SMILES: CC(C)c1ccc(C(=O)c2cccs2)c(SCCCCCCCCN(C)C)n1 [Y29794, [2-[8-(dimethylamino)octylsulfanyl]-6-propan-2-ylpyridin-3-yl]-thiophen-2-ylmethanone]
- tumor growth (tumor volume), combination (Panc-1 tumor; Y29794 20 mg/kg by gavage five doses a week plus rapamycin 2 mg/kg intraperitoneal one dose per week): synergistic effect; also recorded: inhibited tumor growth (P<0.01) more than Y29794 alone
- tumor growth (tumor volume) (Panc-1 tumor; Y29794 alone, 20 mg/kg by gavage five doses a week, vs control group, 20 mg/kg): significantly reduces; also recorded: significantly inhibited
- MTT absorbance (relative cell viability) (Panc-1; Panc-1, different doses, 4 days): dose-dependent cytotoxicity
- cell viability (MTT), combination (Panc-1; Panc-1, various concentration of Y29794 with 0.5 nM rapamycin, three days (FIG. 16A legend)): synergistic reduction
- cell viability (MTT), combination (Panc-1; Panc-1, various concentration of rapamycin with 25 nM Y29794, three days (FIG. 16B legend)): synergistic reduction

From patent US9750728B2, “Method and pharmaceutical composition for inhibiting PI3K/AKT/mTOR signaling pathway” (TARGETED THERAPEUTICS, LLC, priority 2012, dated 2017)
